A word on the solubility: it is the dissolved amount per volume that the medium holds.

A short description of data set [1]: Hardening time of photopolymerizable resin film under continuous xenon lamp irradiation (until surface ceases to be sticky). The source says:
Bisphenol A diglycidyl ether diacrylate
(§1) Trimethylolpropane triacrylate
Triethanolamine 2.5 parts by weight
Photopolymerization initiator of formula (I)
(dialkylthioxanthone derivative)
Irradiation device and conditions: […]

Data set [2] can be described thus: Yellowing resistance of coating film after irradiation, estimated visually. More on the design: key: A: Only slight yellowing; B: Clear yellowing; C: Remarkable yellowing.
Source text: The above photopolymerizable resin composition was applied to a glass plate in a thickness of 25μ and left 9 cm below a xenone lamp. The sensitivity was judged by measuring the time until the surface of the coated film ceases to be sticky (whether the coated film is sticky or not is judged by the touch with finger) under the continuous irradiation.
*^1 Yellowing resistance in the above table was estimated
visually from the state of the coating film after the
The nature of data set [3]: Solubility in organic solvents. Type of data set: physicochemical. Particulars: organic solvent or mixture.
Data set [4] in a line: Pencil hardness of pigmented coating film after passing under high-pressure mercury lamp (JIS K 5400). Particulars: for Pencil hardness after passing 3 times / Pencil hardness after passing 5 times: composition (A), carbon black; for Pencil hardness after passing 3 times: 3 passages; for Pencil hardness after passing 5 times: 5 passages; for Pencil hardness after passing 6 times: composition (B), titanium oxide, 6 passages. Here is the method: (§2) The following photopolymerizable resin compositions (A) and (B) were prepared. Each of the compositions was applied to an aluminum plate in a thickness of 25μ. The aluminum plate was placed on a belt conveyer moving 20 cm below an 80 W/cm high-pressure mercury lamp at a speed of 18 m/min. Relationship between the number of passage times and physical properties of the coating film was examined to obtain the results shown in Table V.
(A) Carbon black-containing composition:
Epoxy acrylate resin (Shell
as §1
Hexanediol diacrylate 14.8 parts by weight
Carbon black 2.5 parts by weight
Methyldiethanolamine 2.0 parts by weight
(§3) Photopolymerization initiator of
(§4) (B) Titanium oxide-containing
(§5) Urethane acrylate resin
(§6) Butyl acrylate 18.8 parts by weight
(§7) Vinylpyrrolidone 9.4 parts by weight
(§8) Titanium oxide (rutile type)
(§9) Methyldiethanolamine 1.5 parts by weight
*^2 Pencil hardness was determined according to JISK 5400 6, 14.

A short description of data set [5]: Yellowing resistance of pigmented coating film. The conditions noted are these: Table V; composition (B), titanium oxide; same criteria as Table II. More on the design: key: A: Only slight yellowing; B: Clear yellowing; C: Remarkable yellowing. Here is the method:
as §2, §4, §5, §1, §6, §7, §8, §9, §3
*^3 Yellowing resistance was estimated based on the same criteria as i

The conditions of data set [6]: unsubstituted thioxanthone, background; cited from earlier work.
The conditions of data set [7]: dispersed in resin, storage for a long period; background; cited from earlier work.
A short description of data set [8]: Hardening of trifunctional maleimide photopolymerizable resin film under high-pressure mercury lamp. Particulars: 2.5 parts per 100 parts resin; 50μ on glass; 80 W/cm Hg lamp, 10 cm, 20 sec. As for the experimental part: 16 Parts of diglycerol triglycidyl ether, 23 parts by weight of α-phenylmaleimidoacetic acid, 0.2 part by weight of dimethylaminoethyl methacrylate and 40 parts by weight of butyl acetate were reacted together at 90°-100° C. for 2 h to obtain a trifunctional photopolymerizable resin in which α-phenylmaleimidoacetic acid was added to substantially all glycidyl groups. 2.5 Parts by weight of 2,4-diisopropylthioxanthone of the present invention was added to 100 parts by weight of the above resin and the whole was kneaded thoroughly and applied onto a glass plate in a thickness of 50μ. […] In case 2,4-diisopropylthioxanthone was not added, the film was not hardened even after 60 min.

Where [9] appears, read: Table III, Control Example 1, same criteria as Table II.
[10] abbreviates: 1,2-dichloroethane, read-out: Solubility, 1,2-Dichloroethane.
The mark [11] stands for this setting: 1,2-dichloropropane, read-out: Solubility, 1,2-Dichloropropane.
The mark [12] stands for this setting: acetone, read-out: Solubility, Acetone.
Setting [13] is: ethanol, read-out: Solubility, Ethanol.
[14] abbreviates: ethyl acetate, read-out: Solubility, Ethyl acetate.
The mark [15] stands for this setting: methanol, read-out: Solubility, Methanol.
[16] abbreviates: toluene, read-out: Solubility, Toluene.
Where [17] appears, read: Table II, 2.5 parts initiator, 2.5 parts triethanolamine, 25μ film on glass, xenon lamp 9 cm.
[18] abbreviates: Table II, visual, after irradiation.

Values after ≈ are worked out from the molar mass of the structure shown. Like-named read-outs stand apart in the source and are kept apart here.

In data set [1] (Table III, Control Example 1), `CCc1ccc(C)c2c(=O)c3ccccc3sc12` [1-Methyl-4-ethylthioxanthone] returned a Hardening time of 50 s. Also, the Yellowing resistance result in data set [2] (setting [9]) was “B”.

With `CCc1ccc(CC)c2c(=O)c3ccccc3sc12` [1,4-Diethylthioxanthone], the Hardening time in data set [1] (Table III, Control Example 1) was 50 s. Further, the Yellowing resistance result in data set [2] (setting [9]) is reported as “A”.

Methylthioxanthone: the Hardening time in data set [1] (Table III, Control Example 1) was 40 s. Also, the Yellowing resistance entry in data set [2] (setting [9]) was “C”.

As to `CC(C)c1ccc(C(C)C)c2c(=O)c3ccccc3sc12` [1,4-Diisopropylthioxanthone], the Hardening time in data set [1] (Table III, Control Example 1) turned out to be 50 s. For the same compound, the Yellowing resistance result in data set [2] (setting [9]) is “A”.

Turning to `CC(C)c1ccc2sc3ccccc3c(=O)c2c1` [Compound 3, 2-isopropylthioxanthone], the solubility in data set [3] (setting [10]) is over 500 mg/mL; in data set [3] (setting [11]), over 500 mg/mL; in data set [3] (setting [12]), 300 mg/mL (≈ 1180 mM); in data set [3] (setting [13]), 36 mg/mL (≈ 142 mM); in data set [3] (setting [14]), 300 mg/mL (≈ 1180 mM); in data set [3] (setting [15]), 33 mg/mL (≈ 130 mM). Besides, in data set [3] (setting [16]), the solubility was over 500 mg/mL.

`CCc1cc(CC)c2sc3ccccc3c(=O)c2c1` [Example 1, 2,4-diethylthioxanthone] displayed a Hardening time in data set [1] (setting [17]) of 15 s. Also, in data set [2] (setting [18]), the Yellowing resistance entry is “A”. Further, in data set [4], the “Pencil hardness after passing 3 times” value is reported as 3H, the “Pencil hardness after passing 5 times” value is 6H and the “Pencil hardness after passing 6 times” value was 3H. Further, in data set [5], the Yellowing resistance result is recorded as “A”.

Turning to `CC(C)c1ccc2sc3ccccc3c(=O)c2c1` [Isopropylthioxanthone], the Hardening time in data set [1] (Table III, Control Example 1) is 20 s. Also, the Yellowing resistance result in data set [2] (setting [9]) is listed as “B”.

`O=c1c2ccccc2sc2ccccc12` [Compound 1, thioxanthone] came in with a Hardening time in data set [1] (Table III, Control Example 1) of over 60 s. In addition, the solubility in data set [3] (setting [10]) is 11 mg/mL (≈ 51.8 mM); in data set [3] (setting [11]) it was under 5 mg/mL; in data set [3] (setting [12]), under 5 mg/mL; in data set [3] (setting [13]), under 5 mg/mL; in data set [3] (setting [14]), 5 mg/mL (≈ 23.6 mM); in data set [3] (setting [15]) it was under 5 mg/mL. The solubility in data set [3] (setting [16]) is under 5 mg/mL. For the same compound, in data set [6], the “Solubility in and compatibility with photopolymerizable compound” value is “poor solubility”. For the same compound, the Crystallization during storage result in data set [7] is recorded as “crystallizes out during the storage for a long period of time”.

Take `CC(C)(C)c1cc(C(C)(C)C)c2sc3ccccc3c(=O)c2c1` [Example 10, 2,4-di-tert-butylthioxanthone]: in data set [1] (setting [17]), the Hardening time amounted to 25 s. Further, in data set [2] (setting [18]), the Yellowing resistance result is given as “A”.

For `CC(C)c1cc(C(C)C)c2sc3ccccc3c(=O)c2c1` [Example 2, 2,4-diisopropylthioxanthone], the Hardening time in data set [1] (setting [17]) was 10 s. The Yellowing resistance entry in data set [2] (setting [18]) and in data set [5] was “A” each time. Also, the solubility in data set [3] (setting [10]) is over 500 mg/mL; in data set [3] (setting [11]), over 500 mg/mL; in data set [3] (setting [12]), over 400 mg/mL; in data set [3] (setting [13]), 90 mg/mL (≈ 304 mM); in data set [3] (setting [14]), over 500 mg/mL; in data set [3] (setting [15]) it was 60 mg/mL (≈ 202 mM). Also, the solubility in data set [3] (setting [16]) is over 500 mg/mL. The “Pencil hardness after passing 3 times” value in data set [4] is on record as 4H. Also, the “Pencil hardness after passing 5 times” value in data set [4] is at least 6H. In data set [4], the “Pencil hardness after passing 6 times” value was 4H. Moreover, the Hardened coating film result in data set [8] is “coating film insoluble in dichloroethane or acetone”.

For the compound `Cc1ccc2sc3ccccc3c(=O)c2c1` [Compound 2, 2-methylthioxanthone], the solubility in data set [3] (setting [10]) is 166 mg/mL (≈ 734 mM); in data set [3] (setting [11]) it was 77 mg/mL (≈ 340 mM); in data set [3] (setting [12]) it was 30 mg/mL (≈ 133 mM); in data set [3] (setting [13]) it was under 10 mg/mL; in data set [3] (setting [14]), 29 mg/mL (≈ 128 mM); in data set [3] (setting [15]), under 10 mg/mL. Also, the solubility in data set [3] (setting [16]) was found to be 55 mg/mL (≈ 243 mM).

For `Cc1cc(C(C)(C)C)cc2c(=O)c3ccccc3sc12` [Example 5, m-tert-butylmethyl thioxanthone], the Hardening time in data set [1] (setting [17]) was determined as 15 s. The Yellowing resistance result in data set [2] (setting [18]) is “A”.

For the compound Ethylthioxanthone, in data set [1] (Table III, Control Example 1), the Hardening time is 40 s. Also, the Yellowing resistance result in data set [2] (setting [9]) is on record as “C”.

For `CCc1c(C(C)C)ccc2sc3ccccc3c(=O)c12` [1-Ethyl-2-isopropylthioxanthone], the Hardening time in data set [1] (Table III, Control Example 1) came to 50 s. Also, the Yellowing resistance entry in data set [2] (setting [9]) is “A”.

The compound `Cc1ccc(C)c2c(=O)c3ccccc3sc12` [1,4-Dimethylthioxanthone] had a Hardening time in data set [1] (Table III, Control Example 1) of 40 s. The Yellowing resistance result in data set [2] (setting [9]) is “B”.

For `CCc1ccc2sc3ccccc3c(=O)c2c1C` [1-Methyl-2-ethylthioxanthone], in data set [1] (Table III, Control Example 1), the Hardening time was over 60 s.
